Experimental data taken from patent US20190053492A1, “SUBSTITUTED PYRIDINE COMPOUNDS AS PESTICIDES” (Bayer CropScience Aktiengesellschaft, priority 2016, published 2019).

How the values were obtained:
Tetranychus urticae = Tetranychus urticae spray test, OP-resistant; type: in vivo; conditions: application rate 500 g/ha, after 6 days, bean leaf discs
Method: Tetranychus urticae—Spray Test, OP-Resistant
Solvent: 78.0 parts by weight of acetone • • 1.5 parts by weight of dimethylformamide
(§1) Emulsifier: alkylaryl polyglycol ether
(§2) To produce a suitable active ingredient formulation, 1 part by weight of active ingredient is dissolved with the specified parts by weight of solvent and made up with water containing an emulsifier concentration of 1000 ppm until the desired concentration is attained. To produce further test concentrations, the formulation is diluted with emulsifier-containing water.
Discs of bean leaves (Phaseolus vulgaris) infested with all stages of the greenhouse red spider mite (Tetranychus urticae) are sprayed with an active ingredient formulation of the desired concentration.
After 6 days, the efficacy in % is determined. 100% means that all the spider mites have been killed; 0% means that no spider mites have been killed.

Boophilus microplus = Boophilus microplus injection test; type: in vivo; conditions: application rate 20 μg/animal, assessed after 7 days, engorged adult female cattle ticks
Method: Boophilus microplus—Injection Test
Solvent: dimethyl sulphoxide
To produce a suitable active ingredient formulation, 10 mg of active ingredient are mixed with 0.5 ml of solvent and the concentrate is diluted to the desired concentration with solvent.
1 μl of the active ingredient solution is injected into the abdomen of 5 engorged adult female cattle ticks (Boophilus microplus). The animals are transferred into dishes and kept in a climate-controlled room.
Efficacy is assessed after 7 days by laying of fertile eggs. Eggs which are not visibly fertile are stored in a climate-controlled cabinet until the larvae hatch after about 42 days. An efficacy of 100% means that none of the ticks has laid any fertile eggs; 0% means that all the eggs are fertile.

Lucilia cuprina = Lucilia cuprina test; type: in vivo; conditions: application rate 100 ppm, after 2 days, L1 larvae
Outline: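 Percent mortality read at day 2, where 100% means all larvae dead. Roughly 20 L1 larvae were exposed on minced horsemeat treated with a DMSO/water formulation at the desired concentration.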

Ctenocephalides felis [1] = experiment: Ctenocephalides felis oral test; type: in vivo; conditions: application rate 100 ppm in citrated cattle blood, after 2 days, adult cat fleas
Outline: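 Kill (%) was recorded at 2 days. Compound, dissolved in DMSO and diluted into citrated cattle blood, was offered to roughly 20 unfed adult C. felis through parafilm.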

[2] = log P by HPLC on reversed-phase column (C 18), EEC Directive 79/831 Annex V.A8; type: physicochemical; conditions: 55° C.; for LOGP_HCOOH: log P (HCOOH); for LOGP_NEUTRAL: log P, neutral range
Method: Temperature: 55° C. […] Called log P (HCOOH) in the table. […] Called log P (neutral) in the table.

Meloidogyne incognita = Meloidogyne incognita test; type: in vivo; conditions: application rate 20 ppm, after 14 days, lettuce
Method: Meloidogyne incognita Test Solvent: 125.0 parts by weight of acetone To produce a suitable active ingredient formulation, 1 part by weight of active ingredient is mixed with the stated amount of solvent and the concentrate is diluted with water to the desired concentration. Vessels are filled with sand, active ingredient solution, an egg/larvae suspension of the southern root-knot nematode (Meloidogyne incognita) and lettuce seeds. The lettuce seeds germinate and the plants develop. The galls develop on the roots. After 14 days, the nematicidal efficacy in % is determined by the formation of galls. 100% means that no galls were found; 0% means that the number of galls on the treated plants corresponds to the untreated control.

Spodoptera frugiperda = Spodoptera frugiperda spray test; type: in vivo; conditions: after 7 days, maize leaf discs
Outline: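 Efficacy in % was scored at 7 days against armyworm caterpillars placed on dried, compound-sprayed Zea mays leaf discs. Compound was dissolved in acetone/dimethylformamide and diluted in water with 1000 ppm alkylaryl polyglycol ether. 100% means all caterpillars were killed.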

Phaedon cochleariae = Phaedon cochleariae spray test; type: in vivo; conditions: after 7 days, Chinese cabbage leaf discs
Outline: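 Larval kill read at day 7 as percent, where 100% means every larva dead and 0% none; larvae were placed on dried Brassica pekinensis leaf discs previously sprayed with the formulation (acetone/dimethylformamide solvent, alkylaryl polyglycol ether emulsifier, water).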

Ctenocephalides felis [3] = experiment: Ctenocephalides felis in vitro contact test with adult cat fleas; type: in vivo; conditions: application rate 5 μg/cm^2 (500 g/ha), after 48 h
Method: Ctenocephalides felis—In Vitro Contact Tests with Adult Cat Fleas
For the coating of the test tubes, 9 mg of active ingredient are first dissolved in 1 ml of acetone p.a. and then diluted to the desired concentration with acetone p.a. 250 μl of the solution are distributed homogeneously on the inner walls and the base of a 25 ml glass tube by turning and rocking on an orbital shaker (rocking rotation at 30 rpm for 2 h). With 900 ppm of active ingredient solution and internal surface area 44.7 cm^2, given homogeneous distribution, an area-based dose of 5 μg/cm^2 is achieved.
After the solvent has evaporated off, the tubes are populated with 5-10 adult cat fleas (Ctenocephalides felis), sealed with a perforated plastic lid and incubated in a horizontal position at room temperature and ambient humidity. After 48 h, efficacy is determined. To this end, the tubes are stood upright and the fleas are knocked to the base of the tube. Fleas which remain motionless at the base or move in an uncoordinated manner are considered to be dead or moribund.
100% efficacy means that all the fleas were dead or moribund. 0% efficacy means that no fleas were harmed.

Musca domestica = Musca domestica test; type: in vivo; conditions: after 2 days, adult houseflies
Outline: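 Active ingredient was dissolved in DMSO and diluted with water to the desired concentration, then applied to a sponge with sugar solution. Ten adult houseflies were exposed per vessel. Percent kill was scored after 2 days.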

Myzus persicae = Myzus persicae spray test; type: in vivo; conditions: application rate 500 g/ha, after 6 days, Chinese cabbage leaf discs
Method: Myzus persicae—Spray Test
Solvent: 78 parts by weight of acetone • • 1.5 parts by weight of dimethylformamide
as §1, §2
Discs of Chinese cabbage leaves (Brassica pekinensis) infested by all stages of the green peach aphid (Myzus persicae) are sprayed with an active ingredient formulation of the desired concentration.
After 6 days, the efficacy in % is determined. 100% means that all the aphids have been killed; 0% means that no aphids have been killed.

[4] = acidic range pH 2.7, 0.1% aqueous formic acid and acetonitrile, reversed-phase column (C 18)
[5] = HPLC on reversed-phase column (C 18)
[6] = acidic range at pH 2.7, 0.1% aqueous formic acid and acetonitrile, HPLC on reversed-phase column (C 18)

| Compound | efficacy (spider mites killed) (Tetranychus urticae) [%] | efficacy (no laying of fertile eggs) (Boophilus microplus) [%] | efficacy (kill in %) (Lucilia cuprina) [%] | efficacy (kill in %) (Ctenocephalides felis [1]) [%] | LOGP_HCOOH [2, 4] | LOGP_NEUTRAL [2, 5] | nematicidal efficacy (formation of galls) (Meloidogyne incognita) [%] | efficacy (caterpillars killed) (Spodoptera frugiperda; application rate 100 g/ha) [%] | efficacy (caterpillars killed) (Spodoptera frugiperda; application rate 500 g/ha) [%] | efficacy (beetle larvae killed) (Phaedon cochleariae; application rate 100 g/ha) [%] | efficacy (beetle larvae killed) (Phaedon cochleariae; application rate 500 g/ha) [%] | efficacy (fleas dead or moribund) (Ctenocephalides felis [3]) [%] | LOGP_HCOOH [2, 6] | efficacy (kill in %) (Musca domestica; application rate 20 ppm) [%] | efficacy (kill in %) (Musca domestica; application rate 100 ppm) [%] | efficacy (aphids killed) (Myzus persicae) [%] |
| --- | --- | --- | --- | --- | --- | --- | --- | --- | --- | --- | --- | --- | --- | --- | --- | --- |
| CC(C)C(=O)Nc1cc(-c2ccc(OC(F)(F)F)cc2)cc(C(=O)NCc2ccc(-c3cnco3)cc2)n1 [Example I-104] | 90 | 95 | 100 | 80 | 3.99 | 3.87 | 90 |  |  |  |  |  |  |  |  |  |
| N#CC1CCC(NC(=O)c2cc(-c3ccc(OC(F)(F)F)cc3)cc(NC(=O)C3CC3)n2)CC1 (centres unmarked) [Example I-197] |  |  | 100 | 100 |  | 3.66 |  | 100 | 100 | 83 | 100 | 100 | 3.76 | 100 | 80 |  |
| CC1(NC(=O)c2cc(-c3ccc(OC(F)(F)F)cc3)cc(NC(=O)C3CC3)n2)CC1 [Example I-128] |  |  | 100 | 100 |  |  |  | 100 | 100 | 100 | 100 | 100 | 3.84 |  |  |  |
| COC(=O)C1(NC(=O)c2cc(-c3ccc(OC(F)(F)F)cc3)cc(NC(=O)C3CC3)n2)COC1 [Example I-175] |  |  |  |  |  | 3.17 |  |  |  |  |  |  | 3.25 |  |  | 90 |
| N#CCNC(=O)c1cc(-c2ccc(C(F)(F)F)cc2)cc(NC(=O)C2CC2)n1 [Example I-025] |  |  |  | 98 | 3.05 | 3.01 | 100 | 100 | 100 |  | 100 |  |  |  |  |  |
| COC(=O)C1(NC(=O)c2cc(-c3ccc(OC(F)(F)F)cc3)cc(NC(=O)C3CC3)n2)CC1 [Example I-138] |  |  | 100 | 100 |  |  | 90 | 100 | 100 | 100 | 100 | 100 | 3.42 |  | 100 |  |
| N#Cc1ccc(CNC(=O)c2cc(-c3ccc([S+]([O-])C(F)(F)F)cc3)cc(NC(=O)C3CC3)n2)cc1 (centres unmarked) [Example I-151] |  | 80 | 100 | 100 |  | 3.50 |  | 100 | 100 | 100 | 100 |  | 3.09 |  | 100 |  |
| O=C(NC1CC1)c1cc(-c2ccc(C(F)(F)F)cc2)cc(NC(=O)C2CC2)n1 [Example I-013] |  |  | 100 | 100 | 3.37 | 3.37 |  | 100 | 100 | 100 | 100 | 80 |  |  | 100 |  |
| CCNC(=O)c1cc(-c2ccc(OC(F)(F)F)cc2)cc(NC(=O)C2CC2)n1 [Example I-118] |  |  |  | 100 |  | 3.33 |  | 100 | 100 | 100 | 100 | 100 | 3.41 |  |  |  |
| O=C(NC1CSC1)c1cc(-c2ccc(OC(F)(F)F)cc2)cc(NC(=O)C2CC2)n1 [Example I-162] |  |  |  | 100 |  | 3.93 | 90 | 100 | 100 | 100 | 100 | 100 | 3.88 |  |  |  |
| O=C(NC1CC1(F)F)c1cc(-c2ccc(OC(F)(F)F)cc2)cc(NC(=O)C2CC2)n1 (centres unmarked) [Example I-216] |  |  | 80 | 100 |  | 3.74 |  | 100 | 100 | 100 | 100 | 100 | 3.85 |  |  |  |
